From patent US10370366B2 (Flatley Discovery Lab, LLC, priority 2013, dated 2019)

Target: T1, human F508del CFTR (Homo sapiens, UniProt P13569, DEL508-508)
T1 construct: expressed in transfected cells; host or cells: Fisher Rat Thyroid (FRT) cells
Experiment: CFTR-YFP High Throughput Assay
Type: cell-based
Details: FRT cells expressing human F508del CFTR and YFP; for Emax: EMax normalized to the positive control, read-out: % Efficacy
Experimental: Assays for Detecting and Measuring the Effect of Compounds on F508del-CFTR Channels CFTR-YFP High Throughput Assay-CFTR Corrector Protocol:
This protocol is designed to selectively screen small molecule compounds for F508del CFTR corrector activities in the HTS YFP (yellow fluorescent protein) flux assay. In this protocol, the cells are incubated with testing compounds for 24 hours, washed with PBS, stimulated with forskolin and a standard potentiator, and fluorescence in each plate well is measured kinetically read on a 384-well HTS plate reader, such as the Hamamatsu FDSS-6000.
YFP fluorescence intensity values are acquired at high speed before and after iodide buffer is injected to the assay cells. Iodide enters the cells via active CFTR channels in the plasma membrane, and quenches the YFP fluorescence. The rate of fluorescence quenching is proportionate to the total CFTR activity in the cell membrane. F508del CFTR correctors increase the number of CFTR molecules in the testing cell plasma membrane, and thereby accelerate YFP quenching.
This method was initially developed for bench top plate readers (Galietta et al., 2001), and was adapted to the HTS format (Sui et al. Assay Drug Dev. Technol. 2010).
Fisher Rat Thyroid (FRT) cells stably expressing both human F508del CFTR and a halide-sensitive yellow fluorescent protein (YFP-H148Q/I152L 25,22) (Galietta et al. Am. J. Physiol Cell Physiol 281(5), C1734, 2001) were cultured on plastic surface in Coon's modified Ham's F12 medium supplemented with FBS 10%, L-glutamine 2 mM, penicillin 100 U/ml, and streptomycin 100 µg/ml. G418 (0.75-1.0 mg/ml) and zeocin (3.2 ug/ml) were used for selection of FRT cells expressing F508del CFTR and YFP. For primary screening, FRT cells were plated into 384-well black wall, transparent bottom microtiter plates (Costar; Corning Inc.) at a cell density of 20,000-40,000 per well. Test compound was applied to the cells at varying concentrations ranging from 2 nM-40 μM in either a 2-fold or 3-fold dilution series. Cells were incubated in a cell culture incubator at 37° C. with 5% CO2 for 24-26 h. Assay plates were washed with DPBS media (Thermo, cat# SH30028.02) to remove unbound cells and compound. Stimulation media (25 μL) containing 20 μM Forskolin & 30 μM P3 [6-(Ethyl-phenyl-sulfonyl)-4-oxo-1,4-dihydro-quinoline-3-carboxylic acid 2-methoxy-benzylamide] in Hams F-12 coon's modified media was added to the plate wells and incubated at room temperature for 60-120 min. […] (10 mM HEPES, 1 mM MgCl2, 3 mM KCl, 1 mM CaCl2, 150 mM NaI) was then added and fluorescence quench curves (Excitation 500 nm/Emission 540 nm; exposure 136 ms) were immediately recorded on an FDSS-6000 plate reader (Hamamatsu). Quench rates were derived from least squares fitting of the data as described by Sui et al (2010).
CFTR-YFP High Throughput Assay-CFTR Potentiator Protocol:
This protocol is designed to selectively screen small molecule compounds for F508del CFTR potentiator activities in the HTS YFP flux assay. Such compounds act acutely to stimulate CFTR already expressed on the membrane surface. In this protocol, the cells are incubated at 27° C. for 24 hours to homogeneously boost F508del CFTR expression in the cell membrane (low temperature correction), washed with PBS, treated with test compound, and CFTR activity is stimulated with forskolin for 1-2 hr. Measurement of ion flux is initiated by addition of iodide-containing buffer, and YFP quenching is kinetically recorded using a 384-well HTS plate reader, such as the Hamamatsu FDSS-6000.
YFP fluorescence intensity values are acquired at high speed over a 1 min time course before and after iodide buffer is injected to the assay cells. Iodide enters the cells via active CFTR channels in the plasma membrane, and quenches the YFP fluorescence. The rate of fluorescence quenching is proportionate to total CFTR activity in the cell membrane. […]

T1 sequence (P13569 with tags, fused parts or gaps DEL508-508): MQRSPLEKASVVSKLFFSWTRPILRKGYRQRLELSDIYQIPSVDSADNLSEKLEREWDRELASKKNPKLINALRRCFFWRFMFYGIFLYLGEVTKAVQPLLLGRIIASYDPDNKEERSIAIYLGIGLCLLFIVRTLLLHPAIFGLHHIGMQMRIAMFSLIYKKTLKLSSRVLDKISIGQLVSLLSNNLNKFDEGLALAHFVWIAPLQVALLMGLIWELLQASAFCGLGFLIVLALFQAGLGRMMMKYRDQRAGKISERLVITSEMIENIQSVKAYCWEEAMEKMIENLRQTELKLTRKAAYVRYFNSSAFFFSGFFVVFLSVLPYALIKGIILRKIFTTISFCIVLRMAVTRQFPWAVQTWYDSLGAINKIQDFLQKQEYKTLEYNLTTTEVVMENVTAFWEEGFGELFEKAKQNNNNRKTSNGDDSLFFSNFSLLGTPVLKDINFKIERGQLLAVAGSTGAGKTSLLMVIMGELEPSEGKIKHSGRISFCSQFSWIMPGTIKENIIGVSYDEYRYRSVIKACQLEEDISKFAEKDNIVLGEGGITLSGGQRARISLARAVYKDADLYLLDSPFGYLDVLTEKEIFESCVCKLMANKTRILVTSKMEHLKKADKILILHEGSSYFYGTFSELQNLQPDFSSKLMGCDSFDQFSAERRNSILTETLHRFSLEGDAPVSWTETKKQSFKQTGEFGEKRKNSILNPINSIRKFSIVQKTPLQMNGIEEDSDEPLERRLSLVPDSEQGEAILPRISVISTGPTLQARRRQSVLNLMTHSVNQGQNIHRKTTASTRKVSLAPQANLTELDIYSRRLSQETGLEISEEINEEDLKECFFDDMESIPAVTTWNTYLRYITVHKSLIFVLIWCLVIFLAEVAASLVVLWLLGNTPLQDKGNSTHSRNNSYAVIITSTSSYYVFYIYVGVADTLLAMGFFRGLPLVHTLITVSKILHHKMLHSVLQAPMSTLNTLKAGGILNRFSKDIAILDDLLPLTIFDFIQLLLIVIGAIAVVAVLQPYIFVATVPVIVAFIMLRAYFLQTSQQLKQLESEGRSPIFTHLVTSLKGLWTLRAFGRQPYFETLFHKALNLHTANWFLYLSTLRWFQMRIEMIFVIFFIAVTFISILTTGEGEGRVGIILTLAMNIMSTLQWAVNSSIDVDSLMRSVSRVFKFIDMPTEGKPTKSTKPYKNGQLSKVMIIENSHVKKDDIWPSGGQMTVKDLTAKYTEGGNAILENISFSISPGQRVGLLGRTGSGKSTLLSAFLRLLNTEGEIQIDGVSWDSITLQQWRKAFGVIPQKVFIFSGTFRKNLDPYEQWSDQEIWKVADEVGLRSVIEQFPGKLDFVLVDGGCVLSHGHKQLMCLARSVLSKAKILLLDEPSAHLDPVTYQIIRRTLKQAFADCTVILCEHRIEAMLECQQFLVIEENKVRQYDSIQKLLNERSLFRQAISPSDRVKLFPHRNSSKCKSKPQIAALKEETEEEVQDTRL

With `Cc1ccc(-n2nc(CN3CCOCC3)c3c4ccccc4n(C)c3c2=O)cc1` [Example 243, 5-methyl-1-(morpholinomethyl)-3-(p-tolyl)-3,5-dihydro-4H-pyridazino[4,5-b]indol-4-one] the Emax was 30 to 80% and the EC50 was < 10 µM.
In the case of `CCc1ccc(N(CC)C(=O)Cn2nc(-c3ccc(C(=O)O)cc3)c3ccccc3c2=O)cc1` [Example 14, 4-(3-(2-(ethyl(4-ethylphenyl)amino)-2-oxoethyl)-4-oxo-3,4-dihydrophthalazin-1-yl)benzoic acid], the Emax is reported as 30 to 80% and the EC50 is reported as > 20 µM.
For `CCN(C(=O)c1nn(-c2ccc(C)cc2)c(=O)c2c1c1cccc(OC)c1n2C)c1ccccc1` [Example 189, N-ethyl-6-methoxy-5-methyl-4-oxo-N-phenyl-3-(p-tolyl)-4,5-dihydro-3H-pyridazino[4,5-b]indole-1-carboxamide], the Emax was 30 to 80% and the EC50 was > 20 µM.
For `CCc1ccc(N(CC)C(=O)Cn2nc(-c3cccc(O)c3)c3ccccc3c2=O)cc1` [Example 9, N-ethyl-N-(4-ethylphenyl)-2-(4-(3-hydroxyphenyl)-1-oxophthalazin-2(1H)-yl)acetamide], the Emax was 10 to 30% and the EC50 was < 10 µM.
`CCc1ccc(N(CC)C(=O)Cn2nc(C(=O)N(CC)c3cccc(Cl)c3)c3c4ccccc4n(C)c3c2=O)cc1` [Example 203, N-(3-chlorophenyl)-N-ethyl-3-(2-(ethyl(4-ethylphenyl)amino)-2-oxoethyl)-5-methyl-4-oxo-4,5-dihydro-3H-pyridazino[4,5-b]indole-1-carboxamide] gave an Emax of 30 to 80%.
For `CCN(C(=O)Cn1ncc2c(c1=O)c1ccccc1n2CCC(=O)OC)c1ccc2c(c1)OC(F)(F)O2` [Example 134, methyl 3-(2-(2-((2,2-difluorobenzo[d][1,3]dioxol-5-yl)(ethyl)amino)-2-oxoethyl)-1-oxo-1H-pyridazino[4,5-b]indol-5(2H)-yl)propanoate], the Emax was 30 to 80%.
`COc1ccc2c(-c3ccc(S(N)(=O)=O)cc3)nn(CC(=O)N(C)c3ccc4c(c3)OC(F)(F)O4)c(=O)c2c1` [Example 71, N-(2,2-difluorobenzo[d][1,3]dioxol-5-yl)-2-(7-methoxy-1-oxo-4-(4-sulfamoylphenyl)phthalazin-2(1H)-yl)-N-methylacetamide] showed an Emax of 30 to 80%.
For `Cc1ccc(-n2nc(C(=O)Nc3cc(Cl)ccc3C(=O)O)c3c4ccccc4n(C)c3c2=O)cc1` [Example 184, 4-chloro-2-(5-methyl-4-oxo-3-(p-tolyl)-4,5-dihydro-3H-pyridazino[4,5-b]indole-1-carboxamido)benzoic acid], the Emax was 30 to 80% and the EC50 was > 20 µM.
In the case of `CCN(C(=O)Cn1ncc2c(c1=O)c1ccccc1n2Cc1cccc(C#N)c1)c1ccc2c(c1)OC(F)(F)O2` [Example 142, 2-(5-(3-cyanobenzyl)-1-oxo-1H-pyridazino[4,5-b]indol-2(5H)-yl)-N-(2,2-difluorobenzo[d][1,3]dioxol-5-yl)-N-ethylacetamide], the Emax is reported as 30 to 80%.
For `CCOc1ccc(N(CC)C(=O)c2nn(C(C)C)c(=O)c3c2c2ccccc2n3C)cc1` [Example 210, N-(4-ethoxyphenyl)-N-ethyl-3-isopropyl-5-methyl-4-oxo-4,5-dihydro-3H-pyridazino[4,5-b]indole-1-carboxamide], the Emax was 30 to 80% and the EC50 was < 10 µM.
With `Cc1nc2ccc(N(C)C(=O)Cn3nc(-c4cccc(Cl)c4)c4ccc(O)cc4c3=O)cc2o1` [Example 98, 2-(4-(3-chlorophenyl)-7-hydroxy-1-oxophthalazin-2(1H)-yl)-N-methyl-N-(2-methylbenzo[d]oxazol-6-yl)acetamide] the EC50 was < 10 µM.
Work on `CCc1ccc(N(CC)C(=O)Cn2nc(Cc3cccnc3)c3ccc(C(C)(C)C)cc3c2=O)cc1` [Example 33, 2-(7-(tert-butyl)-1-oxo-4-(pyridin-3-ylmethyl)phthalazin-2(1H)-yl)-N-ethyl-N-(4-ethylphenyl)acetamide] yielded an Emax of 30 to 80%.
`CCN(C(=O)c1nn(-c2ccccn2)c(=O)c2c1c1ccccc1n2C)c1ccccc1` [Example 167, N-ethyl-5-methyl-4-oxo-N-phenyl-3-(pyridin-2-yl)-4,5-dihydro-3H-pyridazino[4,5-b]indole-1-carboxamide] showed an Emax of 30 to 80%.
With `CCN(C(=O)Cn1nc(-c2cccc(F)c2)c2ccccc2c1=O)c1ccc2c(c1)OC(F)(F)O2` [Example 23, N-(2,2-difluorobenzo[d][1, 3]dioxol-5-yl)-N-ethyl-2-(4-(3-fluorophenyl)-1-oxophthalazin-2(1H)-yl)acetamide] the Emax was > 80% and the EC50 was < 10 µM.
In the case of `CCN(C(=O)c1nn(C(C)c2ccccc2)c(=O)c2c1c1c(C)cccc1n2C)c1ccccc1` (centres unmarked) [Example 218, N-ethyl-5,9-dimethyl-4-oxo-N-phenyl-3-(1-phenylethyl)-4,5-dihydro-3H-pyridazino[4,5-b]indole-1-carboxamide], the Emax is reported as > 80% and the EC50 is reported as < 10 µM.
Compound `CCN(C(=O)Cn1ncc2c(c1=O)c1ccccc1n2Cc1ccccn1)c1ccc2c(c1)OC(F)(F)O2` [Example 131, N-(2,2-difluorobenzo[d][1, 3]dioxol-5-yl)-N-ethyl-2-(1-oxo-5-(pyridin-2-ylmethyl)-1H-pyridazino[4,5-b]indol-2(5H)-yl)acetamide] has an Emax of 30 to 80%.
`COc1ccc2c(-c3cccc(C#N)c3)nn(CC(=O)N(c3ccc4c(c3)OC(F)(F)O4)C3CC3)c(=O)c2c1` [Example 79, 2-(4-(3-cyanophenyl)-7-methoxy-1-oxophthalazin-2(1H)-yl)-N-cyclopropyl-N-(2,2-difluorobenzo[d][1,3]dioxol-5-yl)acetamide] was tested, and the Emax was > 80%.
For `CCN(C(=O)Cn1nc(-c2ccc(S(N)(=O)=O)cc2)c2ccccc2c1=O)c1ccc2c(c1)OC(F)(F)O2` [Example 18, N-(2,2-difluorobenzo[d][1, 3]dioxol-5-yl)-N-ethyl-2-(1-oxo-4-(4-sulfamoylphenyl)phthalazin-2(1H)-yl)acetamide], the Emax was > 80% and the EC50 was 10 to 20 µM.
Work on `CCN(C(=O)c1nn(C2CCN(Cc3ccccc3)CC2)c(=O)c2c1c1ccccc1n2C)c1ccccc1` [Example 198, 3-(1-benzylpiperidin-4-yl)-N-ethyl-5-methyl-4-oxo-N-phenyl-4,5-dihydro-3H-pyridazino[4,5-b]indole-1-carboxamide] yielded an Emax of 30 to 80%.
In the case of `CCN(CC)C(=O)c1nn(CC(O)COCc2ccccc2)c(=O)c2c1c1c(OC)cccc1n2C` (centres unmarked) [Example 231, 3-(3-(benzyloxy)-2-hydroxypropyl)-N,N-diethyl-9-methoxy-5-methyl-4-oxo-4,5-dihydro-3H-pyridazino[4,5-b]indole-1-carboxamide], the Emax is reported as 30 to 80% and the EC50 is reported as < 10 µM.
For `Cc1nc2ccc(N(C(=O)Cn3nc(-c4cccc(Cl)c4)c4ccc(O)cc4c3=O)C3CC3)cc2o1` [Example 100, 2-(4-(3-chlorophenyl)-7-hydroxy-1-oxophthalazin-2(1H)-yl)-N-cyclopropyl-N-(2-methylbenzo[d]oxazol-6-yl)acetamide], the EC50 was < 10 µM.
For `CCN(C(=O)Cn1nc(Cc2cccnc2)c2cc(C(C)(C)C)ccc2c1=O)c1ccc2c(c1)OC(F)(F)O2` [Example 49, 2-(6-(tert-butyl)-1-oxo-4-(pyridin-3-ylmethyl)phthalazin-2(1H)-yl)-N-(2,2-difluorobenzo[d][1,3]dioxol-5-yl)-N-ethylacetamide], the Emax was > 80%.
In the case of `CCN(C(=O)c1nn(-c2cccnc2)c(=O)c2c1c1ccccc1n2C)c1ccccc1` [Example 168], the Emax is reported as 30 to 80%.
In the case of `Cc1ccc(-n2nc(C(=O)N(c3ccccc3)C(C)C)c3c(-c4ccccc4)onc3c2=O)cc1` [Example 248, N-isopropyl-7-oxo-N,3-diphenyl-6-(p-tolyl)-6,7-dihydroisoxazolo[3,4-d]pyridazine-4-carboxamide], the Emax is reported as 10 to 30% and the EC50 is reported as < 10 µM.
